Experimental data from PubChem BioAssay AID2060621 (Molecular Pharmacology Branch, DTP, NCI, 2025).
Blank lines part the entries; values can stand above or below the molecule they belong to.

System: 324938-238-R-J1-PDC complex spheroids viability
Assay: Anticancer human tumor 324938-238-R-J1-PDC patient-derived bladder carcinoma cell line growth inhibition [CLK]
Conditions: for IC50: curve of first compound; for viability, T/C: stronger effect = lower value
Method in brief: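 Patient-derived tumor cells grown as complex spheroids with HUVEC endothelial cells and mesenchymal stem cells, treated with drug combinations. Concentrations descend in half-log steps from near clinical Cmax, or from 10 microM if Cmax unknown.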

[1] = second compound 0.0316 µM, first compound 0.00949 µM
[2] = second compound 0.0316 µM, first compound 0.03 µM
[3] = second compound 0.0316 µM, first compound 0.0949 µM
[4] = second compound 0.0316 µM, first compound 0.3 µM
[5] = second compound 0.1 µM, first compound 0.00949 µM
[6] = second compound 0.1 µM, first compound 0.03 µM
[7] = second compound 0.1 µM, first compound 0.0949 µM
[8] = second compound 0.1 µM, first compound 0.3 µM
[9] = second compound 0.316 µM, first compound 0.00949 µM
[10] = second compound 0.316 µM, first compound 0.03 µM
[11] = second compound 0.316 µM, first compound 0.0949 µM
[12] = second compound 0.316 µM, first compound 0.3 µM
[13] = second compound 1 µM, first compound 0.00949 µM
[14] = second compound 1 µM, first compound 0.03 µM
[15] = second compound 1 µM, first compound 0.0949 µM
[16] = second compound 1 µM, first compound 0.3 µM
[17] = second compound 3.16 µM, first compound 0.00949 µM
[18] = second compound 3.16 µM, first compound 0.03 µM
[19] = second compound 3.16 µM, first compound 0.0949 µM
[20] = second compound 3.16 µM, first compound 0.3 µM
[21] = second compound 10 µM, first compound 0.00949 µM
[22] = second compound 10 µM, first compound 0.03 µM
[23] = second compound 10 µM, first compound 0.0949 µM
[24] = second compound 10 µM, first compound 0.3 µM
[25] = second compound 0.0316 µM, first compound 0.0316 µM
[26] = second compound 0.0316 µM, first compound 0.1 µM
[27] = second compound 0.0316 µM, first compound 0.316 µM
[28] = second compound 0.0316 µM, first compound 1 µM
[29] = second compound 0.0316 µM, first compound 3.16 µM
[30] = second compound 0.0316 µM, first compound 10 µM
[31] = second compound 0.1 µM, first compound 0.0316 µM
[32] = second compound 0.1 µM, first compound 0.1 µM
[33] = second compound 0.1 µM, first compound 0.316 µM
[34] = second compound 0.1 µM, first compound 1 µM
[35] = second compound 0.1 µM, first compound 3.16 µM
[36] = second compound 0.1 µM, first compound 10 µM
[37] = second compound 0.316 µM, first compound 0.0316 µM
[38] = second compound 0.316 µM, first compound 0.1 µM
[39] = second compound 0.316 µM, first compound 0.316 µM
[40] = second compound 0.316 µM, first compound 1 µM
[41] = second compound 0.316 µM, first compound 3.16 µM
[42] = second compound 0.316 µM, first compound 10 µM
[43] = second compound 1 µM, first compound 0.0316 µM
[44] = second compound 1 µM, first compound 0.1 µM
[45] = second compound 1 µM, first compound 0.316 µM
[46] = second compound 1 µM, first compound 1 µM
[47] = second compound 1 µM, first compound 3.16 µM
[48] = second compound 1 µM, first compound 10 µM
[49] = second compound 3.16 µM, first compound 0.0316 µM
[50] = second compound 3.16 µM, first compound 0.1 µM
[51] = second compound 3.16 µM, first compound 0.316 µM
[52] = second compound 3.16 µM, first compound 1 µM
[53] = second compound 3.16 µM, first compound 3.16 µM
[54] = second compound 3.16 µM, first compound 10 µM
[55] = second compound 10 µM, first compound 0.0316 µM
[56] = second compound 10 µM, first compound 0.1 µM
[57] = second compound 10 µM, first compound 0.316 µM
[58] = second compound 10 µM, first compound 1 µM
[59] = second compound 10 µM, first compound 3.16 µM
[60] = second compound 10 µM, first compound 10 µM
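Also: viability read after seven days of drug exposure.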
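For viability, T/C in this document: 100% = DMSO vehicle control wells.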

- IC50 (second compound 0.0316 µM): 39.6 nM
- IC50 (second compound 0.1 µM): < 0.949 nM
- IC50 (second compound 0.316 µM): < 0.949 nM
- IC50 (second compound 1 µM): < 0.949 nM
- IC50 (second compound 3.16 µM): < 0.949 nM
- IC50 (second compound 10 µM): < 0.949 nM
SMILES: C=CC(=O)Nc1cc(Nc2nccc(-c3cn(C)c4ccccc34)n2)c(OC)cc1N(C)CCN(C)C + CNC(=O)c1ccc(Nc2nc(OC3CCCC3)c3c(-c4ccc5nc(C)oc5c4)c[nH]c3n2)c(OC)c1
- viability, T/C (second compound 0.0316 µM, first compound 0.000949 µM): 92.5%
- viability, T/C (second compound 0.0316 µM, first compound 0.003 µM): 87.2%
- viability, T/C [1]: 74.5%
- viability, T/C [2]: 52.8%
- viability, T/C [3]: 38.6%
- viability, T/C [4]: 27.7%
- viability, T/C (second compound 0.1 µM, first compound 0.000949 µM): 30.5%
- viability, T/C (second compound 0.1 µM, first compound 0.003 µM): 24.8%
- viability, T/C [5]: 21.4%
- viability, T/C [6]: 20.3%
- viability, T/C [7]: 15.6%
- viability, T/C [8]: 14.1%
- viability, T/C (second compound 0.316 µM, first compound 0.000949 µM): 19%
- viability, T/C (second compound 0.316 µM, first compound 0.003 µM): 16.8%
- viability, T/C [9]: 19.2%
- viability, T/C [10]: 16.2%
- viability, T/C [11]: 13.4%
- viability, T/C [12]: 12.9%
- viability, T/C (second compound 1 µM, first compound 0.000949 µM): 16.8%
- viability, T/C (second compound 1 µM, first compound 0.003 µM): 15.5%
- viability, T/C [13]: 16.8%
- viability, T/C [14]: 11.8%
- viability, T/C [15]: 11.1%
- viability, T/C [16]: 11.5%
- viability, T/C (second compound 3.16 µM, first compound 0.000949 µM): 16.8%
- viability, T/C (second compound 3.16 µM, first compound 0.003 µM): 17.6%
- viability, T/C [17]: 13.1%
- viability, T/C [18]: 14.3%
- viability, T/C [19]: 11.9%
- viability, T/C [20]: 11.8%
- viability, T/C (second compound 10 µM, first compound 0.000949 µM): 18.1%
- viability, T/C (second compound 10 µM, first compound 0.003 µM): 17.9%
- viability, T/C [21]: 14.8%
- viability, T/C [22]: 13.2%
- viability, T/C [23]: 12.4%
- viability, T/C [24]: 11.5%

- IC50 (second compound 0.0316 µM): 4520 nM
- IC50 (second compound 0.1 µM): < 31.6 nM
- IC50 (second compound 0.316 µM): < 31.6 nM
- IC50 (second compound 1 µM): < 31.6 nM
- IC50 (second compound 3.16 µM): < 31.6 nM
- IC50 (second compound 10 µM): < 31.6 nM
SMILES: CC1(C)CCC(CN2CCN(c3ccc(C(=O)NS(=O)(=O)c4ccc(NCC5CCOCC5)c([N+](=O)[O-])c4)c(Oc4cnc5[nH]ccc5c4)c3)CC2)=C(c2ccc(Cl)cc2)C1 + CNC(=O)c1ccc(Nc2nc(OC3CCCC3)c3c(-c4ccc5nc(C)oc5c4)c[nH]c3n2)c(OC)c1
- viability, T/C [25]: 76.8%
- viability, T/C [26]: 78.4%
- viability, T/C [27]: 84.1%
- viability, T/C [28]: 83.6%
- viability, T/C [29]: 69.4%
- viability, T/C [30]: 6.56%
- viability, T/C [31]: 29.6%
- viability, T/C [32]: 25.7%
- viability, T/C [33]: 26.6%
- viability, T/C [34]: 19.6%
- viability, T/C [35]: 19.8%
- viability, T/C [36]: 4.63%
- viability, T/C [37]: 18.9%
- viability, T/C [38]: 14.3%
- viability, T/C [39]: 15.2%
- viability, T/C [40]: 13.7%
- viability, T/C [41]: 14.6%
- viability, T/C [42]: 4.21%
- viability, T/C [43]: 14.7%
- viability, T/C [44]: 21.3%
- viability, T/C [45]: 14.7%
- viability, T/C [46]: 14.5%
- viability, T/C [47]: 13.2%
- viability, T/C [48]: 7.92%
- viability, T/C [49]: 17.9%
- viability, T/C [50]: 14.5%
- viability, T/C [51]: 14%
- viability, T/C [52]: 14.8%
- viability, T/C [53]: 13.6%
- viability, T/C [54]: 8.16%
- viability, T/C [55]: 14.8%
- viability, T/C [56]: 15.1%
- viability, T/C [57]: 15.8%
- viability, T/C [58]: 14.7%
- viability, T/C [59]: 14%
- viability, T/C [60]: 7.47%

- IC50 (second compound 0.0316 µM): 60.8 nM
- IC50 (second compound 0.1 µM): < 9.49 nM
- IC50 (second compound 0.316 µM): < 9.49 nM
- IC50 (second compound 1 µM): < 9.49 nM
- IC50 (second compound 3.16 µM): < 9.49 nM
- IC50 (second compound 10 µM): < 9.49 nM
SMILES: NC(=O)C(=Cn1cnc(-c2cc(C(F)(F)F)cc(C(F)(F)F)c2)n1)c1cncnc1 + CNC(=O)c1ccc(Nc2nc(OC3CCCC3)c3c(-c4ccc5nc(C)oc5c4)c[nH]c3n2)c(OC)c1
- viability, T/C [1]: 67.1%
- viability, T/C [2]: 74.3%
- viability, T/C [3]: 36.9%
- viability, T/C [4]: 14.3%
- viability, T/C (second compound 0.0316 µM, first compound 0.949 µM): 8.38%
- viability, T/C (second compound 0.0316 µM, first compound 3 µM): 3.32%
- viability, T/C [5]: 21.3%
- viability, T/C [6]: 24.6%
- viability, T/C [7]: 16.9%
- viability, T/C [8]: 12.7%
- viability, T/C (second compound 0.1 µM, first compound 0.949 µM): 8.37%
- viability, T/C (second compound 0.1 µM, first compound 3 µM): 3.77%
- viability, T/C [9]: 15.7%
- viability, T/C [10]: 15.5%
- viability, T/C [11]: 13.7%
- viability, T/C [12]: 7.83%
- viability, T/C (second compound 0.316 µM, first compound 0.949 µM): 3.16%
- viability, T/C (second compound 0.316 µM, first compound 3 µM): 2.69%
- viability, T/C [13]: 12.9%
- viability, T/C [14]: 12.8%
- viability, T/C [15]: 9.03%
- viability, T/C [16]: 5.74%
- viability, T/C (second compound 1 µM, first compound 0.949 µM): 3.19%
- viability, T/C (second compound 1 µM, first compound 3 µM): 1%
- viability, T/C [17]: 16.2%
- viability, T/C [18]: 14.1%
- viability, T/C [19]: 8.67%
- viability, T/C [20]: 4.86%
- viability, T/C (second compound 3.16 µM, first compound 0.949 µM): 2.59%
- viability, T/C (second compound 3.16 µM, first compound 3 µM): 1.1%
- viability, T/C [21]: 14.4%
- viability, T/C [22]: 13%
- viability, T/C [23]: 9.72%
- viability, T/C [24]: 5.02%
- viability, T/C (second compound 10 µM, first compound 0.949 µM): 2.24%
- viability, T/C (second compound 10 µM, first compound 3 µM): 0.98%

- IC50 (second compound 0.0316 µM): 1470 nM
- IC50 (second compound 0.1 µM): < 31.6 nM
- IC50 (second compound 0.316 µM): < 31.6 nM
- IC50 (second compound 1 µM): < 31.6 nM
- IC50 (second compound 3.16 µM): < 31.6 nM
- IC50 (second compound 10 µM): < 31.6 nM
SMILES: Nc1ccccc1NC(=O)c1ccc(CNC(=O)OCc2cccnc2)cc1 + CNC(=O)c1ccc(Nc2nc(OC3CCCC3)c3c(-c4ccc5nc(C)oc5c4)c[nH]c3n2)c(OC)c1
- viability, T/C [25]: 78.2%
- viability, T/C [26]: 91.8%
- viability, T/C [27]: 69%
- viability, T/C [28]: 57.2%
- viability, T/C [29]: 35%
- viability, T/C [30]: 5.41%
- viability, T/C [31]: 31.1%
- viability, T/C [32]: 32.7%
- viability, T/C [33]: 30.4%
- viability, T/C [34]: 34%
- viability, T/C [35]: 32.6%
- viability, T/C [36]: 4.92%
- viability, T/C [37]: 15.1%
- viability, T/C [38]: 17%
- viability, T/C [39]: 15.8%
- viability, T/C [40]: 23.2%
- viability, T/C [41]: 26.1%
- viability, T/C [42]: 3.89%
- viability, T/C [43]: 14.2%
- viability, T/C [44]: 14.6%
- viability, T/C [45]: 16.7%
- viability, T/C [46]: 23.7%
- viability, T/C [47]: 26.2%
- viability, T/C [48]: 2.44%
- viability, T/C [49]: 13%
- viability, T/C [50]: 15.2%
- viability, T/C [51]: 18.6%
- viability, T/C [52]: 18.9%
- viability, T/C [53]: 26.2%
- viability, T/C [54]: 2.46%
- viability, T/C [55]: 15.2%
- viability, T/C [56]: 17.1%
- viability, T/C [57]: 19%
- viability, T/C [58]: 20.7%
- viability, T/C [59]: 25.8%
- viability, T/C [60]: 2.14%
